Results on eleven compounds are retold here after patent publication US20200297749A1, “Methods and Pharmaceutical Composition for Modulation Polarization and Activation of Macrophages” (priority 2015, published 2020).

Each structure is given as a SMILES string. Residues, ends and D or L forms follow the SMILES beside them. *: point of attachment. Cbz = O=C(OCc1ccccc1)*

The subject of experiment [1] is NLRP3. Put plainly: P2Y2-induced NLRP3 degradation in transfected 293T cells (western blot). It is filed as cell-based. The following applies: for down regulation of NLRP3 by P2Y2: 293T cells co-expressing NLRP3 and GFP-P2Y2; for NLRP3 degradation: pharmacological inhibition of SRC. The protocol: Cells were washed twice with PBS and lysed in appropriated buffer (250 mM NaCl, 0.1% NP-40, 5 mM EDTA, 10 mM Na3VO4, 10 mM NaF, 5 mM DTT, 3 mM Na4P207, 1 mM EGTA, 10 mM Glycerol phosphate, 10 mM Tris-Hcl (pH=7.5) and the protease and phosphatase inhibitors (Roche)). 10-40 μg of protein extracts were run on 4-12% or 10% SDS-PAGE and transferred at 4° C. onto a nitrocellulose membrane (0.2 Micron). After incubation for 2 hours at room temperature with 5% nonfat milk or BSA (Bovine Serum Albumine) in Tris-buffered saline and 0.1% Tween 20 (TBS-Tween), membranes were incubated with primary antibody at 4° C. overnight. […] The primary antibodies against GFP (D5.1), PYK2 (5E2). PYK2Y402*, SRC (36D10), SRCY416*, AMPKα (F6), AMPKT172* (40H9) and LC3A/B were obtained from Cell Signaling. Primary antibodies against IL-1β, CASP1, ASC (TMS1), IRF5, PNX1, Actin and GAPDH were purchased from Abcam. The primary antibodies anti-CAp24 (42-50) and anti-gp120 (2G12) were from NIH (AIDS Research and Reference Reagent Program, Division of AIDS, NIAID). Antibody anti-NLRP3 was from Adipogen (Cryo-2), anti-P2Y2 was from Alomone, anti-ubiquitin (P4D1) was from Santa-Cruz, anti-TOM20 and anti-Flag were from Sigma. For immunoprecipitations, cell pellets were lysed 6 hours after infection or 24 hours after transfection in CHAPS buffer (50 mM Tris-HCl (pH=7.5), 0.50 M NaCl and 0.1% CHAPS) containing protease and phosphatase inhibitors. Anti-NLRP3 (Origene), anti-P2Y2 (Abcam) antibodies were incubated overnight at 4° C. with the cell lysates. The complexes were precipitated by incubation with Protein G Sepharose™ 4 Fast Flow (GE Healthcare). For anti-Flag immunoprecipitations, anti-Flag® M2 affinity Gel (Sigma) were incubated for overnight at 4° C. with the cell lysates. […] Western blots shown are representative of at least of three independent experiments.

Experiment [2] relates to NLRP3. Description: NLRP3 ubiquitinylation/degradation in HIV-1NL4-3-infected THP-1 monocytes. It is filed as cell-based, human. The following applies: THP-1, HIV-1NL4-3 infection. The protocol:
(§1) Cells were washed twice with PBS and lysed in appropriated buffer (250 mM NaCl, 0.1% NP-40, 5 mM EDTA, 10 mM Na3VO4, 10 mM NaF, 5 mM DTT, 3 mM Na4P207, 1 mM EGTA, 10 mM Glycerol phosphate, 10 mM Tris-Hcl (pH=7.5) and the protease and phosphatase inhibitors (Roche)). 10-40 μg of protein extracts were run on 4-12% or 10% SDS-PAGE and transferred at 4° C. onto a nitrocellulose membrane (0.2 Micron). After incubation for 2 hours at room temperature with 5% nonfat milk or BSA (Bovine Serum Albumine) in Tris-buffered saline and 0.1% Tween 20 (TBS-Tween), membranes were incubated with primary antibody at 4° C. overnight. […] The primary antibodies against GFP (D5.1), PYK2 (5E2). PYK2Y402*, SRC (36D10), SRCY416*, AMPKα (F6), AMPKT172* (40H9) and LC3A/B were obtained from Cell Signaling. Primary antibodies against IL-1β, CASP1, ASC (TMS1), IRF5, PNX1, Actin and GAPDH were purchased from Abcam. The primary antibodies anti-CAp24 (42-50) and anti-gp120 (2G12) were from NIH (AIDS Research and Reference Reagent Program, Division of AIDS, NIAID). Antibody anti-NLRP3 was from Adipogen (Cryo-2), anti-P2Y2 was from Alomone, anti-ubiquitin (P4D1) was from Santa-Cruz, anti-TOM20 and anti-Flag were from Sigma. […]

For another experiment, the system named is HIV-1NL4-3. Description: HIV-1 permissiveness of THP-1 monocytes (intracellular p24). It is filed as cell-based. To be noted: human monocytes THP-1. Here is the method:
as §1

In experiment [3] the test system is PMA-treated THP-1 macrophages stimulated with lipopolysaccharide and ATP (LPS+ATP). Description: IL-1β secretion by LPS+ATP-stimulated PMA-treated THP-1 macrophages (ELISA). It is filed as cell-based, Human. To be noted: for IL-1β secretion: after stimulation with LPS+ATP; for exacerbated IL-1β secretion of P2Y2-inhibited THP-1 macrophages: LPS+ATP stimulation, added 18 hours before; for IL-10 secretion: PMA-treated THP-1 macrophages, LPS+ATP, drug 100 μM during stimulation, FIG. 1a. Here is the method:
(§2) Human THP-1 cells were cultured in RPMI 1640 media, supplemented with 10% FBS. THP-1 cells were differentiated by treatment for 3 hours with 100 nM phorbol-12-myristate-13-acetate (PMA, Invivogen). After 2 days THP-1 cells were stimulated first 3 hours with ultrapure LPS from E. coli (10 ng/ml, LPS) and then stimulated for 6 hours with ATP (5 mM, Sigma). Supernatants were used for cytokine assays and cell lysates for western blot analysis. Kaempferol (100 μM, Sigma), OxATP (100 μM, Sigma), Suramine (100 μM, Sigma), or Bafilomycine A1 ([…], TOCRIS) were added during LPS+ATP stimulation, while, PP1 (20 μM, Sigma), PP2 (20 μM, Sigma). MnTBAP (10 μM, Sigma) and NAC (100 μM, Sigma) 18 hours before LPS+ATP stimulations. Commercially available ELISA kits for […] (Ebioscience), IL-10 (BD) or LDH (Roche) were used according to the manufacturers' instructions.

A further experiment has as its system R5-tropic HIV-1BaL. Description: HIV-1BaL replication in human MDMs (p24 release). It is filed as cell-based.
In experiment [4] the test system is M2 human monocyte derived macrophages (MDMs). Put plainly: M1 polarization assays in M2 monocyte derived macrophages. It is filed as cell-based. Here is the method: M2 MDMs that express at 100% the differentiation marker CD11b and the scavenger receptor M2 marker CD163 were then seeded (0.5×10^6/ml in macrophage medium+10% FBS), let to be attached on the plates for 2 hours at 37° C. before treatments with interferon γ (IFNγ) (1 μg/0.5×10^6 MDMs), kaempferol (100 μM) or DMSO for control cells. MDMs and supernatants were harvest for flow cytometry and confocal microscopy analysis at 24 hours post-kaempferol treatments and for cytokines IL-10 ELISA analyses at 96 hours post-kaempferol treatments. Expressions of CD163 and IRF5 were respectively determined by flow cytometry and western blot. Release of IL-1β and IL-10 was determined as indicated above by ELISA.

The subject of experiment [5] is PMA-differentiated THP-1 macrophages stimulated with LPS+ATP. Put plainly: Viability / LDH release of LPS+ATP-stimulated THP-1 macrophages. It is filed as cell-based, Human. The following applies: in comparison with the control. The protocol:
as §2

The test system of experiment [6] is LPS+ATP-stimulated PMA-treated THP-1 macrophages. Put plainly: Quantification of ROS production (H2DCFDA, MitoSOX). It is filed as cell-based, Human. To be noted: detectable with H2DCFDA or MitoSOX. Here is the method:
Mitochondria-associated ROS levels were measured by staining cells with H2DCFDA at 5 μM for 1 hour or with MitoSOX at 0.25 μM for 10 minutes at 37° C. Cells were then washed twice with HBSS solution and suspended in cold HBSS solution containing 1% FBS for FACS analysis^25.

Experiment [7] shares this test system. Put plainly: Fragmentation of the mitochondrial network (TOM20, Mitotracker Green fluorescence microscopy). It is filed as cell-based, Human. To be noted: TOM20 or Mitotracker Green. Here is the method:
For immunofluorescence, cells were fixed in 2% paraformaldehyde-PBS for 5 minutes, permeabilized in 0.3% Triton (Sigma) in PBS, and incubated with PBS-FBS 20% for 1 hour, as previously described^39. Mitochondrial fragmentation and actin polymerization were analysed respectively using Mitotracker® Green FM (20 nM, Invitrogen) and Alexa Fluor 488 Phalloidin. For immunohistochemistry, 4-μm sections were cut from the paraffin blocks of the paraformaldehyde fixed tissues from mice, Macaca fascicularis or humans. After paraffin removal, slides were subjected to antigen retrieval by microwave boiling in 1 mmol/l EDTA pH 9.0. Slides were incubated with anti-P2Y2 (Alomone), anti-NLRP3 (Abcam), anti-CD163 (BD laboratories), anti-gp120 (2G12), anti-CD40 (BD laboratories) or anti-CASP1 p10 (Santa Cruz) overnight after permeabilization in 0.3% Triton for 5 minutes and saturation in PBS-FBS 20% for 1 hour. […] Cells were analysed by fluorescent confocal microscopy on Leica SPE (using a 63× objective). […] Mice alveolar macrophages were dissociated from lung (using Lung Dissociation kit from Miltenyi Biotech) and analysed using anti-CD11b (APC-Cy7) (BD laboratories), anti-CD11c (PE-Cy7) (BioLegend), anti-CD40 (eFluo710) (BioLegend), anti-F4/80 (FITC) (ebioscience) and anti-GR-1 (PE) (ebioscience).

For another experiment, the system named is NLRP3 inflammasome. Description: IL-1β maturation under P2Y2 inhibition. It is filed as cell-based. The following applies: P2Y2i alone. Here is the method: as §1

Regarding `O=C1C(=Cc2ccc([N+](=O)[O-])cc2)CS(=O)(=O)CC1=Cc1ccc([N+](=O)[O-])cc1` [G5], the “down regulation of NLRP3 by P2Y2” value in the experiment on NLRP3 [1] is “partially inhibited”. Besides, the “ubiquitinylation/degradation of NLRP3” value in the experiment with NLRP3 [2] is given as “increased”. The “HIV-1 permissiveness (intracellular accumulation of p24)” value in the experiment on HIV-1NL4-3 is “enhanced”.
For `CC(C)C[C@@H](C=O)NC(=O)[C@H](CC(C)C)NC(=O)[C@H](CC(C)C)NC(=O)OCc1ccccc1` [MG132] (Cbz-Leu-Leu-Leu-aldehyde), the “down regulation of NLRP3 by P2Y2” value in the experiment on NLRP3 [1] is listed as “fully suppressed”.
`O=c1ccn([C@@H]2O[C@H](COP(=O)(O)OP(=O)(O)OP(=O)(O)OP(=O)(O)Oc3ccccc3)[C@@H](O)[C@H]2O)c(=O)[nH]1` [MRS2768]: the IL-1β secretion result in [3] was “impaired”.
`O=c1nc2[nH]c(=O)[nH]c2c([O-])[nH]1.[Na+]` [MSU, monosodium urate crystals]: in the experiment on R5-tropic HIV-1BaL, the “p24 antigen release and replication of R5-tropic HIV-1BaL” value is on record as “reduced”.
Turning to `O=C(O)c1ccc(/C2=C3\C=CC(=N3)/C(c3ccc(C(=O)O)cc3)=c3/cc/c4[n]3[Mn]([Cl])[n]3c2ccc3/C(c2ccc(C(=O)O)cc2)=C2/C=CC(=N2)\C=4c2ccc(C(=O)O)cc2)cc1` [MnTBAP], in experiment [3], the “exacerbated IL-1β secretion of P2Y2-inhibited THP-1 macrophages” value was “blunted”.
With `CC(=O)N[C@@H](CS)C(=O)O` [N-Acetyl Cysteine], the “exacerbated IL-1β secretion of P2Y2-inhibited THP-1 macrophages” value in experiment [3] is “blunted”.
With `Cc1ccc(-c2nn(C(C)(C)C)c3ncnc(N)c23)cc1` [PP1], the NLRP3 degradation result in the experiment on NLRP3 [1] is recorded as “impaired”.
The same measure, in the same setting: under `CC(C)(C)n1nc(-c2ccc(Cl)cc2)c2c(N)ncnc21` [PP2] stands “impaired”.
In the case of `O=c1c(O)c(-c2ccc(O)cc2)oc2cc(O)cc(O)c12` [kaempferol], the IL-10 secretion result in experiment [3] is reported as “increased”; in experiment [4] (M2 human MDMs, kaempferol 100 μM, FIG. 1c) it was “increased”. Further, the “secretion of the M2 cytokine interleukin-10 (IL-10)” value in [4] (MDMs, kaempferol 100 μM, 96 hours, FIG. 1e) is given as “reduced”. Further, the IL-1β secretion entry in [4] (MDMs, kaempferol 100 μM, FIG. 1c) is reported as “induction”. In addition, the M1 polarization result in experiment [4] (MDMs, kaempferol 100 μM, FIG. 1e) is given as “favoured the M1 polarization”. The “membrane expressions of the M2 markers such as CD163” value in [4] (flow cytometry, 24 hours post-kaempferol) was “diminished”. Besides, the “expression of IFN regulatory factor 5 (IRF5)” value in experiment [4] (western blot) is given as “increased”. The “viability (cell death, pyroptosis)” value in experiment [5] was “lost their viability”. In [6], the “LPS+ATP-induced ROS production” value is “increased”. The “fragmentation of the mitochondrial network” value in experiment [7] is “caused fragmentation”. Also, in the experiment with NLRP3 inflammasome, the IL-1β maturation entry is reported as “stimulation”.
Turning to `Nc1ncnc2c1ncn2[C@@H](C=O)O[C@@H](C=O)COP(=O)(O)OP(=O)(O)OP(=O)(O)O` [oxidized ATP], the IL-1β secretion result in [3] is listed as “inhibited”.
Regarding `Cc1ccc(C(=O)Nc2ccc(S(=O)(=O)O)c3cc(S(=O)(=O)O)cc(S(=O)(=O)O)c23)cc1NC(=O)c1cccc(NC(=O)Nc2cccc(C(=O)Nc3cc(C(=O)Nc4ccc(S(=O)(=O)O)c5cc(S(=O)(=O)O)cc(S(=O)(=O)O)c45)ccc3C)c2)c1` [suramin], the IL-10 secretion entry in experiment [3] was “increased”.
